Converted amounts (≈) assume the structure as drawn. The source made the active and inactive calls. The calls are words filed in the database; no cut-off is given here. Where a SMILES comes first, the peptide text is derived from it. Bridges are numbered along the chain shown (N, C = ends). Roman numbers before positions name the chains, in order. Side-chain parts run from the residue outwards. The star is where a group is joined. X2 = CC[C@H](C)[C@H](N)C(=O)NCCCC[C@H](NC(=O)[C@@H](N)[C@@H](C)CC)C(=O)*
Experiments:
[1] = test system: Escherichia coli; test: Antibacterial activity against Escherichia coli HB101 (PAT 266) by broth microdilution assay; type: functional
[2] = test system: Escherichia coli; test: Antibacterial activity against Escherichia coli DC2 by broth microdilution assay; type: functional
[3] = test system: Staphylococcus epidermidis; test: Antibacterial activity against Staphylococcus epidermidis J147 by broth microdilution assay; type: functional
[4] = test system: Enterococcus faecium; test: Antibacterial activity against Enterococcus faecium Van BE38-10 by broth microdilution assay; type: functional
[5] = test system: Staphylococcus epidermidis; test: Antibacterial activity against Staphylococcus epidermidis ATCC 14990 by broth microdilution assay; type: functional
[6] = test system: Enterococcus faecium; test: Antibacterial activity against Enterococcus faecium ATCC 19434 by broth microdilution assay; type: functional
[7] = test system: Staphylococcus aureus; test: Antibacterial activity against Staphylococcus aureus ATCC 25923 by broth microdilution assay; type: functional
[8] = test system: Staphylococcus aureus; test: Antibacterial activity against Staphylococcus aureus 887 by broth microdilution assay; type: functional
[9] = test system: Escherichia coli; test: Antibacterial activity against Escherichia coli ATCC 25922 by broth microdilution assay; type: functional
[10] = test system: Pseudomonas aeruginosa; test: Antibacterial activity against Pseudomonas aeruginosa 8S/H by broth microdilution assay; type: functional
[11] = test system: Staphylococcus aureus; test: Antibacterial activity against Staphylococcus aureus ATCC 29213 by broth microdilution assay; type: functional
[12] = test system: Escherichia coli; test: Antibacterial activity against Escherichia coli DH5[alpha] after 18 to 24 hrs by broth microdilution assay; type: functional
[13] = test system: Pseudomonas aeruginosa; test: Antibacterial activity against Pseudomonas aeruginosa K799/61 by broth microdilution assay; type: functional
[14] = test system: Enterococcus faecalis; test: Antibacterial activity against Enterococcus faecalis ATCC 29212 by broth microdilution assay; type: functional
[15] = test system: Enterococcus faecalis; test: Antibacterial activity against Enterococcus faecalis Van BE80-8 by broth microdilution assay; type: functional
[16] = test system: Pseudomonas aeruginosa; test: Antibacterial activity against Pseudomonas aeruginosa K799/WT by broth microdilution assay; type: functional
[17] = test system: Staphylococcus aureus; test: Antibacterial activity against methicillin-resistant Staphylococcus aureus 42080 by broth microdilution assay; type: functional
[18] = test system: Bacillus subtilis; test: Antibacterial activity against Bacillus subtilis BR151 after 18 to 24 hrs by broth microdilution assay; type: functional
[19] = test system: Pseudomonas aeruginosa; test: Antibacterial activity against Pseudomonas aeruginosa ATCC 27853 by broth microdilution assay; type: functional
[20] = test system: Pseudomonas aeruginosa; test: Antibacterial activity against Pseudomonas aeruginosa PAO1 HS by broth microdilution assay; type: functional
[21] = test system: Pseudomonas aeruginosa; test: Antibacterial activity against Pseudomonas aeruginosa PAO1 after 18 to 24 hrs by broth microdilution assay; type: functional
[22] = Hemolytic activity in human RBC after 4 hrs; type: ADME, cell-based; conditions: erythrocyte
[23] = test system: Lipid bilayer; test: Induction of membrane disruption in synthetic unilamellar vesicles assembled from Escherichia coli lipids at 25 ug/ml after 16 hrs by negative-stain transmission electron microscopic analysis; type: functional

Row | Structure (SMILES) | MIC [1] | MIC [2] | MIC [3] | MIC [4] | MIC [5] | MIC [6] | MIC [7] | MIC [8] | MIC [9] | MIC [10] | MIC [11] | MIC [12] | MIC [13] | MIC [14] | MIC [15] | MIC [16] | MIC [17] | MIC [18] | MIC [19] | MIC [20] | other results
1 | CC1(C)S[C@@H]2[C@H](NC(=O)[C@H](N)c3ccccc3)C(=O)N2[C@H]1C(=O)O [AMPICILLIN] | > 32 µg/mL | 1 µg/mL (≈ 2.86 µM) | 1.5 µg/mL (≈ 4.29 µM) | > 32 µg/mL | 1 µg/mL (≈ 2.86 µM) | 4 µg/mL (≈ 11.4 µM) | 0.13 µg/mL (≈ 0.372 µM) | > 32 µg/mL |  |  |  |  |  |  |  |  |  |  |  |  | 
2 | CC(C)C[C@H](N)C(=O)NCCCC[C@H](NC(=O)[C@@H](N)CC(C)C)C(=O)N[C@@H](Cc1ccccc1)C(=O)NCCCC[C@H](NC(=O)[C@H](Cc1ccccc1)NC(=O)[C@H](CCCCNC(=O)[C@@H](N)CC(C)C)NC(=O)[C@@H](N)CC(C)C)C(=O)N1CCC[C@H]1C(=O)NCCCC[C@H](NC(=O)[C@@H]1CCCN1C(=O)[C@H](CCCCNC(=O)[C@H](Cc1ccccc1)NC(=O)[C@H](CCCCNC(=O)[C@@H](N)CC(C)C)NC(=O)[C@@H](N)CC(C)C)NC(=O)[C@H](Cc1ccccc1)NC(=O)[C@H](CCCCNC(=O)[C@@H](N)CC(C)C)NC(=O)[C@@H](N)CC(C)C)C(=O)N[C@@H](CCCCN)C(N)=O |  |  |  |  |  |  |  |  | > 32 µg/mL | > 32 µg/mL | > 32 µg/mL | 19 µg/mL (≈ 6.96 µM) | > 32 µg/mL | > 32 µg/mL | > 32 µg/mL | > 32 µg/mL | > 32 µg/mL | 2 µg/mL (≈ 0.732 µM) | > 32 µg/mL | > 32 µg/mL | MIC [21]: 66 µg/mL (≈ 24.2 µM); MHC [22]: > 10000 µg/mL
3 | CC(C)C[C@H](NC(=O)[C@H](CCCCNC(=O)[C@@H](N)CC(C)C)NC(=O)[C@@H](N)CC(C)C)C(=O)NCCCC[C@H](NC(=O)[C@H](CC(C)C)NC(=O)[C@H](CCCCNC(=O)[C@@H](N)CC(C)C)NC(=O)[C@@H](N)CC(C)C)C(=O)N[C@@H](Cc1ccccc1)C(=O)NCCCC[C@H](NC(=O)[C@H](Cc1ccccc1)NC(=O)[C@H](CCCCNC(=O)[C@H](CC(C)C)NC(=O)[C@H](CCCCNC(=O)[C@@H](N)CC(C)C)NC(=O)[C@@H](N)CC(C)C)NC(=O)[C@H](CC(C)C)NC(=O)[C@H](CCCCNC(=O)[C@@H](N)CC(C)C)NC(=O)[C@@H](N)CC(C)C)C(=O)N[C@@H](CCCCN)C(N)=O | 32 µg/mL (≈ 11.9 µM) | > 32 µg/mL | 24 µg/mL (≈ 8.91 µM) | 32 µg/mL (≈ 11.9 µM) | 32 µg/mL (≈ 11.9 µM) | ≥ 32 µg/mL | 24 µg/mL (≈ 8.91 µM) | 12 µg/mL (≈ 4.45 µM) | > 32 µg/mL | > 32 µg/mL | > 32 µg/mL | 21 µg/mL (≈ 7.79 µM) | > 32 µg/mL | > 32 µg/mL | > 32 µg/mL | > 32 µg/mL | > 32 µg/mL | 2 µg/mL (≈ 0.742 µM) | > 32 µg/mL | > 32 µg/mL | Activity [23]: Active; MIC [21]: > 72 µg/mL; MHC [22]: 310 µg/mL
4 | CC[C@H](C)[C@H](N)C(=O)NCCCC[C@H](NC(=O)[C@@H](N)[C@@H](C)CC)C(=O)N[C@H](C(=O)NCCCC[C@H](NC(=O)[C@@H](NC(=O)[C@H](CCCCNC(=O)[C@@H](N)[C@@H](C)CC)NC(=O)[C@@H](N)[C@@H](C)CC)[C@@H](C)CC)C(=O)N[C@@H](Cc1ccccc1)C(=O)NCCCC[C@H](NC(=O)[C@H](Cc1ccccc1)NC(=O)[C@H](CCCCNC(=O)[C@@H](NC(=O)[C@H](CCCCNC(=O)[C@@H](N)[C@@H](C)CC)NC(=O)[C@@H](N)[C@@H](C)CC)[C@@H](C)CC)NC(=O)[C@@H](NC(=O)[C@H](CCCCNC(=O)[C@@H](N)[C@@H](C)CC)NC(=O)[C@@H](N)[C@@H](C)CC)[C@@H](C)CC)C(=O)N[C@@H](CCCCN)C(N)=O)[C@@H](C)CC (I: H-IK(Ile)IK([Ile-X2])FKK-NH2 / II: H-IK(Ile)IK([Ile-X2])F; amide I:6-II:C) | > 32 µg/mL | > 32 µg/mL | > 32 µg/mL | 8 µg/mL (≈ 2.97 µM) | 32 µg/mL (≈ 11.9 µM) | 24 µg/mL (≈ 8.91 µM) | > 32 µg/mL | 16 µg/mL (≈ 5.94 µM) | > 32 µg/mL | > 32 µg/mL | > 32 µg/mL | 79 µg/mL (≈ 29.3 µM) | > 32 µg/mL | > 32 µg/mL | > 32 µg/mL | > 32 µg/mL | > 32 µg/mL | 4.4 µg/mL (≈ 1.63 µM) | > 32 µg/mL | > 32 µg/mL | MIC [21]: > 100 µg/mL; MHC [22]: 20 µg/mL

From ChEMBL document CHEMBL3217499, “Membrane disrupting antimicrobial peptide dendrimers with multiple amino termini” (Medchemcomm, 2012)
